The values below come from patent US4321271A, “Heterocyclic and aliphatic growth promotors” (Beecham Group Limited, priority 1979, dated 1982).

Experiment [1] concerns rumen fluid. Description: In vitro incubation of buffered rumen fluid: volatile fatty acids, methane inhibition and hydrogen. The experiment is classed as cell-based, sheep. The conditions noted are these: 20 h; for % hydrogen present: headspace gas; for Molar % VFA Acetate / Molar % VFA Butyrate / Molar % VFA Propionate / TVFA: sheep rumen fluid. The method, then: The compounds were tested for their ability to reduce or inhibit methane production and to enhance propionate formation. The method used is as follows:
The screening system is in vitro incubation of buffered rumen fluid with, or without, the addition of the test compound.
Rumen fluid is removed by suction from two rumen-fistulated sheep, just before feeding. The fluid is strained and mixed. The incubation is for twenty hours in a shaking water-bath at 39° C. Each incubation flask contains: 30 ml McDougall's bicarbonate buffer-pH 6.7-6.9, 10 ml strained rumen fluid, 200 mg substrate (the substrate is a ground sample of the diet on which the sheep has been fed) and 1 ml 10% aqueous ethanol containing 0.2% Tween 80 and the compound under examination. Samples are taken at the end of the incubation period for analysis of headspace gases and volatile fatty acids, by g.l.c. […]

The test system of experiment [2] is methanogenesis. Kind of experiment: In vivo "gas collection screen" in sheep (respirometer): methanogenesis and hydrogen evolution. The conditions noted are these: sheep 50 kg, in diet, 75 mg/day, 5 week period. The method, then:
In vivo Studies in a "gas collection screen":
A Group of 4, 50 kg Sheep were fed diets containing the compound of Example 6 over 5 week period. A different sheep from each group was put into a respirometer for 24 hours each day. Each sheep was thus monitored once in every […]. Gas flow was maintained by a peristatic pump and measured using a commercial gas meter and a sub-sample collected in a butyl-rubber inner tube. Gas analysis was carried out by gas chromatograph using a R/E 204 gas chromatograph with both electron capture and […] detectors.
During a run-in control period it was found the sheep produced 19.2±0.4 liters methane/day and not more than 1.5 liters Hydrogen/day.
The compounds were stable in the feed over the period of the study. By feeding measured amounts to the sheep (no refusals) it was possible to "dose" each sheep with 75 mg/day.

Where [3] appears, read: Ovis aries, read-out: VFA production % difference from control, Acetate.
[4] abbreviates: Ovis aries, read-out: VFA production % difference from control, Butyrate.
Where [5] appears, read: Ovis aries, read-out: VFA production % difference from control, Propionate.
Setting [6] is: Ovis aries, read-out: VFA production % difference from control, TVFA.
[7] abbreviates: Ovis aries, 10 ppm/flask, 39° C.

The structures appear in SMILES notation. Read-outs that look alike come from different tables or passages of the source.

In the case of `CNCC(O)C(Cl)(Cl)Cl` (stereo not drawn) [Example 1, 1,1,1-Trichloro-3-methylaminopropan-2-ol], in experiment [1] (10 ppm/flask, 39° C), the “% hydrogen present” value came out at 1.43%, the “Molar % VFA Acetate” value is reported as 55.3%, the “Molar % VFA Butyrate” value amounted to 12.1% and the “Molar % VFA Propionate” value came out at 30.4%. Besides, the TVFA in experiment [1] (10 ppm/flask, 39° C) turned out to be 40.6 μM/ml. Besides, the percent change in VFA production versus control at 10 ppm in experiment [1] (setting [3]) is -44.7%. In addition, the percent change in VFA production versus control at 10 ppm in experiment [1] (setting [4]) was -29.7%. Further, the percent change in VFA production versus control at 10 ppm in experiment [1] (setting [5]) was determined as 22.3%. Moreover, the percent change in VFA production versus control at 10 ppm in experiment [1] (setting [6]) was -28.2%. 10 ppm produced 100% inhibition in experiment [1] (setting [7]).
`CCN(CC)CC(O)C(Cl)(Cl)Cl` (stereo not drawn) [Example 3, 1,1,1-Trichloro-3-diethylaminopropan-2-ol]: in experiment [1] (10 ppm/flask, 39° C), the “% hydrogen present” value is given as 1.27%, the “Molar % VFA Acetate” value is recorded as 54.2%, the “Molar % VFA Butyrate” value came out at 12.4% and the “Molar % VFA Propionate” value worked out at 30.0%. Further, the TVFA in experiment [1] (10 ppm/flask, 39° C) is on record as 43.3 μM/ml. Besides, the percent change in VFA production versus control at 10 ppm in experiment [1] (setting [3]) was -42.3%. The percent change in VFA production versus control at 10 ppm in experiment [1] (setting [4]) was -20%. In addition, the percent change in VFA production versus control at 10 ppm in experiment [1] (setting [5]) amounted to 26.8%. Moreover, the percent change in VFA production versus control at 10 ppm in experiment [1] (setting [6]) was -23%. Besides, in experiment [1] (setting [7]), 10 ppm produced 100% inhibition.
In the case of `CN1CCN(CC(O)C(Cl)(Cl)Cl)CC1` (stereo not drawn) [Compound A, reference compound], in experiment [1] (10 ppm/flask, 39° C), the “% hydrogen present” value was found to be 0.062%, the “Molar % VFA Acetate” value was determined as 65.3%, the “Molar % VFA Butyrate” value stood at 9.13% and the “Molar % VFA Propionate” value is reported as 21.9%. Further, in experiment [1] (10 ppm/flask, 39° C), the TVFA was 56.7 μM/ml. Further, the percent change in VFA production versus control at 10 ppm in experiment [1] (setting [3]) is -35%. Moreover, the percent change in VFA production versus control at 10 ppm in experiment [1] (setting [4]) came to 9%. For the same molecule, the percent change in VFA production versus control at 10 ppm in experiment [1] (setting [5]) was determined as 19.9%. Besides, the percent change in VFA production versus control at 10 ppm in experiment [1] (setting [6]) is -22.6%. Besides, 10 ppm produced 50.6% inhibition in experiment [1] (setting [7]).
With `OC(CNC1CCCCC1)C(Cl)(Cl)Cl` (stereo not drawn) [Example 5, 1,1,1-Trichloro-3-cyclohexylaminopropan-2-ol], in experiment [1] (10 ppm/flask, 39° C), the “% hydrogen present” value is 1.01%, the “Molar % VFA Acetate” value was 56.7%, the “Molar % VFA Butyrate” value was found to be 10.21% and the “Molar % VFA Propionate” value is on record as 31.1%. The same molecule returned a TVFA in experiment [1] (10 ppm/flask, 39° C) of 44.2 μM/ml. Besides, the percent change in VFA production versus control at 10 ppm in experiment [1] (setting [3]) is -31.1%. The percent change in VFA production versus control at 10 ppm in experiment [1] (setting [4]) is 14.6%. In addition, in experiment [1] (setting [5]), the percent change in VFA production versus control at 10 ppm was determined as 32.5%. Also, the percent change in VFA production versus control at 10 ppm in experiment [1] (setting [6]) is -11.8%. For the same molecule, the inhibition – broadly, the drop in the measured response relative to a control, in per cent – at 10 ppm in experiment [1] (setting [7]) amounted to 100%.
With `CC(C)CNCC(O)C(Cl)(Cl)Cl` (stereo not drawn) [Example 4, 1,1,1-Trichloro-3-isobutylaminopropan-2-ol], in experiment [1] (10 ppm/flask, 39° C), the “% hydrogen present” value is reported as 1.07%, the “Molar % VFA Acetate” value came out at 55.3%, the “Molar % VFA Butyrate” value is 12.3% and the “Molar % VFA Propionate” value is 30.0%. In experiment [1] (10 ppm/flask, 39° C), this molecule yielded a TVFA of 40.1 μM/ml. The percent change in VFA production versus control at 10 ppm in experiment [1] (setting [3]) was -45.7%. Also, the percent change in VFA production versus control at 10 ppm in experiment [1] (setting [4]) is -29%. Also, the percent change in VFA production versus control at 10 ppm in experiment [1] (setting [5]) came out at 18.8%. Besides, the percent change in VFA production versus control at 10 ppm in experiment [1] (setting [6]) was -29.4%. This molecule showed an inhibition at 10 ppm in experiment [1] (setting [7]) of 100%.
As for `OC(CN1CCCC1)C(Cl)(Cl)Cl` (stereo not drawn) [Example 7, 1,1,1-Trichloro-3-(N-pyrrolidino)propan-2-ol], in experiment [1] (10 ppm/flask, 39° C), the “% hydrogen present” value was determined as 1.18%, the “Molar % VFA Acetate” value is on record as 57.7%, the “Molar % VFA Butyrate” value is 9.67% and the “Molar % VFA Propionate” value is given as 30.5%. Also, in experiment [1] (10 ppm/flask, 39° C), the TVFA is 44.6 μM/ml. Moreover, the percent change in VFA production versus control at 10 ppm in experiment [1] (setting [3]) was -27.6%. The percent change in VFA production versus control at 10 ppm in experiment [1] (setting [5]) came to 30.5%. Besides, the percent change in VFA production versus control at 10 ppm in experiment [1] (setting [6]) was -10.4%. At 10 ppm the inhibition in experiment [1] (setting [7]) was 100%.
In the case of `OC(CN1CCCCC1)C(Cl)(Cl)Cl` (stereo not drawn) [Example 6, 1,1,1-Trichloro-3-(N-piperidino)propan-2-ol], in experiment [2], the “% inhibition of methanogenesis” value came to 9.1% and the Hydrogen evolution amounted to 2.1 liters/24h. For the same molecule, in experiment [1] (10 ppm/flask, 39° C), the “% hydrogen present” value is reported as 1.34%, the “Molar % VFA Acetate” value is 57.7%, the “Molar % VFA Butyrate” value is on record as 9.64% and the “Molar % VFA Propionate” value turned out to be 30.7%. Further, the TVFA in experiment [1] (10 ppm/flask, 39° C) is 45.3 μM/ml. Moreover, in experiment [1] (setting [3]), the percent change in VFA production versus control at 5 µg/mL was -19.1% and the percent change in VFA production versus control at 10 ppm is -25.8%. Besides, in experiment [1] (setting [4]), the percent change in VFA production versus control at 5 µg/mL came out at 27.7% and the percent change in VFA production versus control at 10 ppm amounted to 7.9%. Also, in experiment [1] (setting [5]), the percent change in VFA production versus control at 5 µg/mL stood at 23% and the percent change in VFA production versus control at 10 ppm worked out at 34.1%. Moreover, in experiment [1] (setting [6]), the percent change in VFA production versus control at 5 µg/mL is -7.1% and the percent change in VFA production versus control at 10 ppm was -8.3%. In experiment [1] (setting [7]), the inhibition at 10 ppm is 100%. Besides, the inhibition at 5 µg/mL in experiment [1] (Ovis aries, tested at 5 ppm level, 39° C) came to 32.2%. In addition, the “% hydrogen present” value in experiment [1] (tested at 5 ppm level, 39° C) was determined as 0.09%.
Consider `CN(C)CC(O)C(Cl)(Cl)Cl` (stereo not drawn) [Example 2, 1,1,1-Trichloro-3-dimethylaminopropan-2-ol], for which, in experiment [1] (10 ppm/flask, 39° C), the “% hydrogen present” value was 1.61%, the “Molar % VFA Acetate” value amounted to 55.6%, the “Molar % VFA Butyrate” value was determined as 12.2% and the “Molar % VFA Propionate” value was 29.7%. The TVFA in experiment [1] (10 ppm/flask, 39° C) was found to be 43.9 μM/ml. In addition, the percent change in VFA production versus control at 10 ppm in experiment [1] (setting [3]) was -35.5%. The percent change in VFA production versus control at 10 ppm in experiment [1] (setting [4]) was -18.1%. Moreover, the percent change in VFA production versus control at 10 ppm in experiment [1] (setting [5]) turned out to be 31.5%. Moreover, the percent change in VFA production versus control at 10 ppm in experiment [1] (setting [6]) was -18.4%. 10 ppm produced 100% inhibition in experiment [1] (setting [7]).
